In patent publication US20040229880A1, “4-[(2,4-dichloro-5-methoxyphenyl)amino]-6-alkoxy-3-quinolinecarbonitriles for the treatment of ischemic injury” (Wyeth, priority 2003, published 2004):
Each block holds one compound with its values, some of them ahead of it.

Columns and labels:
[1] = system: Rat2 fibroblasts stably transformed with v-Src/Hu c-Src fusion gene; assay: Anchorage Independent Src-transformed Fibroblast Proliferation Assay; format: cell-based; conditions: Rattus norvegicus, src dependent suspension growth, MTS, read-out: Src cells IC50
[2] = target: T1, Src (Homo sapiens, UniProt P12931); assay: Src Kinase Assay (ELISA or Delfia format, cdc2 substrate peptide); format: biochemical; conditions: read-out: Src enzyme IC50
T1 construct: purchased Upstate Biotechnologies, Lake Placid, N.Y
T1 sequence (P12931 whole entry): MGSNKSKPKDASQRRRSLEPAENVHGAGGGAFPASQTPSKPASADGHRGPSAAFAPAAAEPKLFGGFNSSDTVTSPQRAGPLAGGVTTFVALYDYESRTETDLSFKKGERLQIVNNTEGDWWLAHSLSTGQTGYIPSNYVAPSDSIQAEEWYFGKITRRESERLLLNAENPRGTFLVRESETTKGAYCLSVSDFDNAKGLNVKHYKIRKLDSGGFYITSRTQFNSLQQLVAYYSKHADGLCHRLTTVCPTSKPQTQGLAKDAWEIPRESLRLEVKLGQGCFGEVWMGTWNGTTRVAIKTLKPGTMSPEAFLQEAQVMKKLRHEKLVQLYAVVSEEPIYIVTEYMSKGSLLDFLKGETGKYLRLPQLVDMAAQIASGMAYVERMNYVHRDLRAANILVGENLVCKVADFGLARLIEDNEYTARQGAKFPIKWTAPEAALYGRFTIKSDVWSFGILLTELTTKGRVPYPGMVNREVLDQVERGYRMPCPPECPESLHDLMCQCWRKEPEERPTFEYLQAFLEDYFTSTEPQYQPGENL

[3] = system: permanent focal ischemia; assay: Permanent focal ischemia with extensive infarction to sensorimotor cortex, 21 day neurological assessment; format: in vivo, Wistar rats; conditions: IV bolus 10 mg/kg at 90 min, 4 hours later, and 24 and 28 hours later (total 40 mg/kg); Day 21
Description: Wistar rats (n=5 per group) were subjected to focal ischemic stroke model that results in a extensive ischemia to the sensorimotor cortex substantially as described by Chen et al., (Stroke 17:738, 1986). […] Results were evaluated by Generalized Regression Model to determine statistical significance of the differences between slopes and to compare final neurological outcome after 21 days. […] Thus, compounds of the present invention provide long-term improvement of neurological deficits.

[4] = system: permanent focal ischemia; assay: Permanent focal ischemia, model of extreme severity (intraluminal suture occlusion of internal carotid artery); format: in vivo, rat; conditions: relatively short outcome (28 hours)
Description: Permanent Focal Ischemia Example 1 was also evaluated in two rat models of permanent focal ischemia.

[5] = system: transient focal ischemia; assay: IP administration in rat model of transient focal ischemia (90 min MCA occlusion, 48 h reperfusion); format: in vivo, Wistar rats; conditions: for recovery from stroke-induced neurological deficits: 85 min after onset of ischemia, evaluated over 48 hours
Description: Wistar rats were subjected to a 90 min occlusion of the middle cerebral artery (MCA) using an intraluminal suture approach as described by Longa et al., Stroke 1989, 20:84 followed by reperfusion for 48 hours. […] Following reperfusion, the animals were evaluated over a 48 hour period for neurological function deficit and weight loss/gain. Infarct size was measured following sacrifice at 48 hours post MCA occlusion.

[6] = system: transient focal ischemia; assay: IV administration in rat model of transient focal ischemia (90 min MCA occlusion, 48 h reperfusion); format: in vivo, Wistar rats
Description: Following reperfusion, the animals were evaluated over a 48 hour period for neurological function deficit and weight loss/gain. Brain tissue infarction volume by were reduced by 22%, 53% and 42%, respectively. […] Thus, compounds of the present invention provide neuroprotection following focal ischemia.

[7] = system: transient focal ischemia; assay: Therapeutic window in transient focal ischemia model; format: in vivo, Wistar rats
Description: Therapeutic Window In this model of transient focal ischemia three studies were conducted to examine therapeutic window. Wistar rats were subjected to 90 minute occlusion of the MCA followed by reperfusion as described above. […] Volume of infarcted tissue was measured by histological staining.

[8] = system: vascular permeability in the ischemic striatum; assay: Post ischemic vascular permeability (Evans Blue extravasation); format: in vivo, Wistar rats; conditions: single IV bolus 30 min after onset of ischemia at 3, 10 and 30 mg/kg (dose of the value not stated), 24 hours reperfusion
Description: Post Ischemic Vascular Permeability Wistar rats were subjected to a 90 min occlusion of the middle cerebral artery (MCA) using an intraluminal suture approach as described by Longa et al., Stroke 1989, 20:84 followed by reperfusion for 24 hours. […] Two hours before sacrifice animals received an IV injection of 2% Evans Blue in saline. Brains were perfused with saline and the striatum dissected. Evans Blue was extracted and quantified by spectrofluorometer based on external standards. Vascular permeability in the ischemic striatum was reduced as evidenced by a 60% decrease of Evans Blue extravasation. Thus, compounds of the present invention reduce vascular permeability associated with ischemic injury.

melting point: 141 to 143 °C
IC50 [2]: 1.5 nM
SMILES: CCOc1cc2c(Nc3cc(OC)c(Cl)cc3Cl)c(C#N)cnc2cc1OCCN1CCN(C)CC1 [Example 13, 4-[(2,4-Dichloro-5-methoxyphenyl)amino]-6-ethoxy-7-[2-(4-methyl-1-piperazinyl)ethoxy]quinoline-3-carbonitrile]
IC50 [1]: 146 nM

melting point: 174 to 176 °C
IC50 [2]: 1.9 nM
SMILES: CCOc1cc2c(Nc3cc(OC)c(Cl)cc3Cl)c(C#N)cnc2cc1OCCC1CCN(C)CC1 [Example 14, 4-[(2,4-Dichloro-5-methoxyphenyl)amino]-6-ethoxy-7-[2-(1-methylpiperidin-4-yl)ethoxy]quinoline-3-carbonitrile]
IC50 [1]: 267 nM

melting point: 127 to 130 °C
IC50 [2]: 0.85 nM
SMILES: CCOc1cc2c(Nc3cc(OC)c(Cl)cc3Cl)c(C#N)cnc2cc1OCCCN1CCN(CC)CC1 [Example 11, 4-[(2,4-Dichloro-5-methoxyphenyl)amino]-6-ethoxy-7-[3-(4-ethylpiperazin-1-yl)propoxy]quinoline-3-carbonitrile]
IC50 [1]: 160 nM

melting point: 148 to 151 °C
IC50 [2]: 1.4 nM
SMILES: CCOc1cc2c(Nc3cc(OC)c(Cl)cc3Cl)c(C#N)cnc2cc1OCCCC1CCN(C)CC1 [Example 12, 4-[(2,4-Dichloro-5-methoxyphenyl)amino]-6-ethoxy-7-[3-(1-methylpiperidin-4-yl)propoxy]quinoline-3-carbonitrile]
IC50 [1]: 96 nM

The next lines start with the compound.

SMILES: CCCN1CCN(CCCOc2cc3ncc(C#N)c(Nc4cc(OC)c(Cl)cc4Cl)c3cc2OC)CC1 [Example 15, 4-[(2,4-Dichloro-5-methoxyphenyl)amino]-6-methoxy-7-[3-(4-propyl-1-piperazinyl)propoxy]-3-quinolinecarbonitrile]
IC50 [1]: 160 nM

SMILES: CCOc1cc2c(Nc3cc(OC)c(Cl)cc3Cl)c(C#N)cnc2cc1OCCCN1CCN(C)CC1 [Example 9, 4-[(2,4-Dichloro-5-methoxyphenyl)amino]-6-ethoxy-7-[3-(4-methylpiperazin-1-yl)propoxy]quinoline-3-carbonitrile]
melting point: 137 to 138 °C
IC50 [1]: 86 nM

SMILES: COc1cc(Nc2c(C#N)cnc3cc(OCCN4CCN(C)CC4)c(OC)cc23)c(Cl)cc1Cl [Example 3, 4-[(2,4-Dichloro-5-methoxyphenyl)amino]-6-methoxy-7-[2-(4-methyl-1-piperazinyl)ethoxy]-3-quinolinecarbonitrile]
melting point: 165 to 167 °C
IC50 [1]: 380 nM
IC50 [2]: 4 nM

SMILES: CCOc1cc2c(Nc3cc(OC)c(Cl)cc3Cl)c(C#N)cnc2cc1OCC1CCN(C)CC1 [Example 10, 4-[(2,4-Dichloro-5-methoxyphenyl)amino]-6-ethoxy-7-[(1-methylpiperidin-4-yl)methoxy]quinoline-3-carbonitrile]
melting point: 182 to 186 °C
IC50 [1]: 176 nM
IC50 [2]: 2.1 nM

SMILES: CCN1CCN(CCOc2cc3ncc(C#N)c(Nc4cc(OC)c(Cl)cc4Cl)c3cc2OC)CC1 [Example 4, 4-[(2,4-Dichloro-5-methoxyphenyl)amino]-7-[2-(4-ethyl-1-piperazinyl)ethoxy]-6-methoxy-3-quinolinecarbonitrile]
melting point: 101 to 105 °C
IC50 [1]: 600 nM
IC50 [2]: 3.6 nM

SMILES: CCN1CCC(COc2cc3ncc(C#N)c(Nc4cc(OC)c(Cl)cc4Cl)c3cc2OC)CC1 [Example 8, 4-[(2,4-Dichloro-5-methoxyphenyl)amino]-7-[(1-ethylpiperidin-4-yl)methoxy]-6-methoxyquinoline-3-carbonitrile]
melting point: 192 to 195 °C
IC50 [1]: 170 nM
IC50 [2]: 2.1 nM

SMILES: CCN1CCN(CCCOc2cc3ncc(C#N)c(Nc4cc(OC)c(Cl)cc4Cl)c3cc2OC)CC1 [Example 2, 4-[(2,4-Dichloro-5-methoxyphenyl)amino]-7-[3-(4-ethyl-1-piperazinyl)propoxy]-6-methoxy-3-quinolinecarbonitrile]
IC50 [1]: 130 nM

SMILES: COc1cc(Nc2c(C#N)cnc3cc(OCCCN4CCN(C)CC4)c(OC)cc23)c(Cl)cc1Cl [Example 1, 4-[(2,4-Dichloro-5-methoxyphenyl)amino]-6-methoxy-7-[3-(4-methyl-1-piperazinyl)propoxy]-3-quinolinecarbonitrile]
Behavioral Score (sensorimotor deficits) as compared to a control group [3]: statistically significant improvement
IC50 [1]: 100 nM
effect in permanent focal ischemia model of extreme severity [4]: little or no effect
recovery from stroke-induced neurological deficits ([5]; 5 mg/kg ip): significantly improved
recovery from stroke-induced neurological deficits ([5]; 45 mg/kg ip): significantly improved
volume of infarcted brain tissue, statistical significance of reduction ([5]; 45 mg/kg ip, 48 hours post MCA occlusion): statistical significance was achieved
body weight recovery ([5]; ip, over 48 hours): Improvement in body weight recovery was observed
volume of infarcted brain tissue ([5]; most doses (1.5, 5, 15, or 45 mg/kg ip), 48 hours post MCA occlusion): Reductions in the volume of infarcted brain tissue were observed
Mean Motor Deficit Score at 24 hrs ([6]; 3 mg/kg iv): 3.83 ± 0.3
Mean Motor Deficit Score at 48 hrs ([6]; 3 mg/kg iv): 3.25 ± 0.37
Brain tissue infarction volume reduced by ([6]; 3 mg/kg iv, 30 min after MCA occlusion): 22%
Mean Motor Deficit Score at 24 hrs ([6]; 10 mg/kg iv): 4.08 ± 0.08
Mean Motor Deficit Score at 48 hrs ([6]; 10 mg/kg iv): 3.67 ± 0.22
Brain tissue infarction volume reduced by ([6]; 10 mg/kg iv, 30 min after MCA occlusion): 53%
Mean Motor Deficit Score at 24 hrs ([6]; 30 mg/kg iv): 4.08 ± 0.23
Mean Motor Deficit Score at 48 hrs ([6]; 30 mg/kg iv): 3.67 ± 0.28
Brain tissue infarction volume reduced by ([6]; 30 mg/kg iv, 30 min after MCA occlusion): 42%
stroke-induced neurological deficits ([6]; all three doses (3, 10 and 30 mg/kg iv)): significantly reduced
Post-stroke weight loss ([6]; iv, 30 min after MCA occlusion): significantly reduced
Brain tissue infarction (as a % of vehicle treated) ([7]; single 10 mg/kg dose administered between 30 min and 4 hours after the ischemic injury): statistically reduced
protection from neurological deficits (as a percent of vehicle treated) ([7]; single 10 mg/kg dose administered up to 5 hours post-stroke): Statistically significant protection
protection from ischemia-induced weight loss (as a % of vehicle treated) ([7]; single 10 mg/kg dose up to 5 hours post stroke): statistically significant protection
decrease of Evans Blue extravasation in the ischemic striatum [8]: 60%
